The values that follow come from ChEMBL document CHEMBL1153800, “Carbonic anhydrase inhibitors; fluorinated phenyl sulfamates show strong inhibitory activity and selectivity for the inhibition of the tumor-associated isozymes IX and XII over the cytosolic ones I and II” (Bioorg Med Chem Lett, 2009).

Assay [1] has as its target Carbonic anhydrase 9 (Homo sapiens) (UniProt Q16790).
Description: Inhibition of tumor associated human recombinant CA9 catalytic domain by stopped flow CO2 hydration assay
Assay [2] concerns the target Carbonic anhydrase 1 (Homo sapiens) (UniProt P00915).
Description: Inhibition of human CA1 by stopped flow CO2 hydration assay
The next assay is filed under the species Homo sapiens. The assay is described as follows: Selectivity ratio of Ki for human recombinant CA9 catalytic domain to Ki for human CA2.
Assay [3] has as its target Carbonic anhydrase 2 (Homo sapiens) (UniProt P00918).
Description: Inhibition of human CA2 by stopped flow CO2 hydration assay
Assay [4] deals with Carbonic anhydrase 12 (Homo sapiens) (UniProt O43570).
Chain of Carbonic anhydrase 12 (Homo sapiens) (O43570 whole entry): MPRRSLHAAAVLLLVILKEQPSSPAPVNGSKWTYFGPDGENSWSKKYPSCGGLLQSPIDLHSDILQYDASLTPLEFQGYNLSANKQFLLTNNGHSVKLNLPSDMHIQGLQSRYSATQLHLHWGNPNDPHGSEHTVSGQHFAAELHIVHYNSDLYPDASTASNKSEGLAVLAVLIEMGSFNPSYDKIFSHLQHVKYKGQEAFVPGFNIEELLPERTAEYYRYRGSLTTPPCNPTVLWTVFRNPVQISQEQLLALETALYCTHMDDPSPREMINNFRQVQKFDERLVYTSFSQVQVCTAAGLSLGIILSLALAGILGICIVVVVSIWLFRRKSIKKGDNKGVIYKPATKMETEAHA
Description: Inhibition of tumor associated human recombinant CA12 catalytic domain by stopped flow CO2 hydration assay

Chain of Carbonic anhydrase 1 (Homo sapiens) (P00915 2-261 limits assumed): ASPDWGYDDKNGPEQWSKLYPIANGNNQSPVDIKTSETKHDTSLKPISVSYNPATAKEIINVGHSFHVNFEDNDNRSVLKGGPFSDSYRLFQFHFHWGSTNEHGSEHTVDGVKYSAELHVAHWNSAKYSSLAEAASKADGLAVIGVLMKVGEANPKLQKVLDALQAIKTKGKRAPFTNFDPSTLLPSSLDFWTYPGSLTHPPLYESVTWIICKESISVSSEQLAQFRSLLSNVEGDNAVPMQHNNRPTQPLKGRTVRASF

In the case of `NS(=O)(=O)Oc1ccc(F)cc1`, the Ki worked out at 6.5 nM in assay [1], 75 nM in assay [2], 74 nM in assay [3] and 3.9 in assay [4]. Further, in the assay filed under Homo sapiens, the Ratio was determined as 11.4.
Regarding `NS(=O)(=O)Oc1ccccc1`, the Ki was determined as 63 nM in assay [1], 2.1 nM in assay [2] and 56 in assay [4].
